Reference: PubChem BioAssay (NCI)
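Grown in 96-well plates, cells were treated for 48 hours with each compound at five concentrations. Insufficient inhibition: endpoint recorded as highest concentration tested. GI50 marks 50% less growth. At the TGI there is no net growth.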

Columns and labels:
Experiment in all cases: NCI tumour cell line growth inhibition, 48 h
SF-539 CNS = system: SF-539 CNS
TK-10 renal = system: TK-10 renal
OVCAR-8 ovarian = system: OVCAR-8 ovarian
SN12C renal = system: SN12C renal
A498 renal = system: A498 renal
SNB-75 CNS = system: SNB-75 CNS
SK-MEL-5 melanoma = system: SK-MEL-5 melanoma
IGROV1 ovarian = system: IGROV1 ovarian
SW-620 colon = system: SW-620 colon
HL-60(TB) leukemia = system: HL-60(TB) leukemia
786-0 renal = system: 786-0 renal
HCT-116 colon = system: HCT-116 colon
SR leukemia = system: SR leukemia
RXF 393 renal = system: RXF 393 renal
SK-MEL-2 melanoma = system: SK-MEL-2 melanoma
NCI-H460 lung = system: NCI-H460 lung
OVCAR-4 ovarian = system: OVCAR-4 ovarian
UACC-257 melanoma = system: UACC-257 melanoma
NCI-H23 lung = system: NCI-H23 lung
HT29 colon = system: HT29 colon
NCI-H522 lung = system: NCI-H522 lung
SK-MEL-28 melanoma = system: SK-MEL-28 melanoma
CCRF-CEM leukemia = system: CCRF-CEM leukemia
NCI-H226 lung = system: NCI-H226 lung
SK-OV-3 ovarian = system: SK-OV-3 ovarian
UO-31 renal = system: UO-31 renal
MDA-MB-231 breast = system: MDA-MB-231 breast
DU-145 prostate = system: DU-145 prostate
MALME-3M melanoma = system: MALME-3M melanoma
KM12 colon = system: KM12 colon
OVCAR-5 ovarian = system: OVCAR-5 ovarian
CAKI-1 renal = system: CAKI-1 renal
HS 578T breast = system: HS 578T breast
ACHN renal = system: ACHN renal
MDA-MB-435 = system: MDA-MB-435
SNB-19 CNS = system: SNB-19 CNS
A549 NSCLC = system: A549 NSCLC
UACC-62 melanoma = system: UACC-62 melanoma
COLO 205 colon = system: COLO 205 colon
RPMI-8226 leukemia = system: RPMI-8226 leukemia
SF-268 CNS = system: SF-268 CNS
EKVX NSCLC = system: EKVX NSCLC
LOX IMVI melanoma = system: LOX IMVI melanoma
K-562 leukemia = system: K-562 leukemia
HOP-62 NSCLC = system: HOP-62 NSCLC
U251 CNS = system: U251 CNS
HOP-92 NSCLC = system: HOP-92 NSCLC
SF-295 CNS = system: SF-295 CNS
MCF7 breast = system: MCF7 breast
HCC-2998 colon = system: HCC-2998 colon
NCI/ADR-RES ovarian = system: NCI/ADR-RES ovarian
BT-549 breast = system: BT-549 breast
HCT-15 colon = system: HCT-15 colon
OVCAR-3 ovarian = system: OVCAR-3 ovarian

COC(=O)N1CCN(CCNCc2ccc(NC(=O)c3ccc(C)c(C#Cc4cnc5cccnn45)c3)cc2C(F)(F)F)CC1
GI50 (SF-539 CNS): 1.4 µM | TGI (SF-539 CNS): 2.78 µM | GI50 (TK-10 renal): 2.21 µM | TGI (TK-10 renal): 5.07 µM | GI50 (OVCAR-8 ovarian): 1.82 µM | TGI (OVCAR-8 ovarian): 4.35 µM | GI50 (SN12C renal): 1.68 µM | TGI (SN12C renal): 4.08 µM | GI50 (A498 renal): 2.8 µM | TGI (A498 renal): 7.35 µM | GI50 (SNB-75 CNS): 0.372 µM | TGI (SNB-75 CNS): 1.95 µM | GI50 (SK-MEL-5 melanoma): 1.58 µM | TGI (SK-MEL-5 melanoma): 2.97 µM | GI50 (IGROV1 ovarian): 1.41 µM | TGI (IGROV1 ovarian): 3.43 µM | GI50 (SW-620 colon): 1.32 µM | TGI (SW-620 colon): 3.41 µM | GI50 (HL-60(TB) leukemia): 0.342 µM | TGI (HL-60(TB) leukemia): 3.22 µM | GI50 (786-0 renal): 1.45 µM | TGI (786-0 renal): 3.54 µM | GI50 (HCT-116 colon): 0.63 µM | TGI (HCT-116 colon): 2.32 µM | GI50 (SR leukemia): 0.796 µM | TGI (SR leukemia): 22.1 µM | GI50 (RXF 393 renal): 1.73 µM | TGI (RXF 393 renal): 3.21 µM | GI50 (SK-MEL-2 melanoma): 1.15 µM | TGI (SK-MEL-2 melanoma): 2.8 µM | GI50 (NCI-H460 lung): 1.85 µM | TGI (NCI-H460 lung): 3.76 µM | GI50 (OVCAR-4 ovarian): 1.93 µM | TGI (OVCAR-4 ovarian): 5.86 µM | GI50 (UACC-257 melanoma): 1.53 µM | TGI (UACC-257 melanoma): 3.27 µM | GI50 (NCI-H23 lung): 1.17 µM | TGI (NCI-H23 lung): 2.88 µM | GI50 (HT29 colon): 0.769 µM | TGI (HT29 colon): 2.32 µM | GI50 (NCI-H522 lung): 1.51 µM | TGI (NCI-H522 lung): 3.23 µM | GI50 (SK-MEL-28 melanoma): 1.48 µM | TGI (SK-MEL-28 melanoma): 2.89 µM | GI50 (CCRF-CEM leukemia): 1.46 µM | TGI (CCRF-CEM leukemia): 8.22 µM | GI50 (NCI-H226 lung): 1.39 µM | TGI (NCI-H226 lung): 5.32 µM | GI50 (SK-OV-3 ovarian): 2.07 µM | TGI (SK-OV-3 ovarian): 3.85 µM | GI50 (UO-31 renal): 1.34 µM | TGI (UO-31 renal): 3.14 µM | GI50 (MDA-MB-231 breast): 1.26 µM | TGI (MDA-MB-231 breast): 3.25 µM | GI50 (DU-145 prostate): 2.22 µM | TGI (DU-145 prostate): 4.77 µM | GI50 (MALME-3M melanoma): 0.893 µM | TGI (MALME-3M melanoma): 2.41 µM | GI50 (KM12 colon): 0.434 µM | TGI (KM12 colon): 1.73 µM | GI50 (OVCAR-5 ovarian): 1.39 µM | TGI (OVCAR-5 ovarian): 3.97 µM | GI50 (CAKI-1 renal): 1.89 µM | TGI (CAKI-1 renal): 4.71 µM | GI50 (HS 578T breast): 1.72 µM | TGI (HS 578T breast): 5.04 µM | GI50 (ACHN renal): 2.32 µM | TGI (ACHN renal): 6.85 µM | GI50 (MDA-MB-435): 1.08 µM | TGI (MDA-MB-435): 2.39 µM | GI50 (SNB-19 CNS): 2.53 µM | TGI (SNB-19 CNS): 5.89 µM | GI50 (A549 NSCLC): 1.69 µM | TGI (A549 NSCLC): 4.21 µM | GI50 (UACC-62 melanoma): 1.43 µM | TGI (UACC-62 melanoma): 3.04 µM | GI50 (COLO 205 colon): 1.19 µM | TGI (COLO 205 colon): 2.79 µM | GI50 (RPMI-8226 leukemia): 1.37 µM | TGI (RPMI-8226 leukemia): 4.32 µM | GI50 (SF-268 CNS): 2.08 µM | TGI (SF-268 CNS): 4.78 µM | GI50 (EKVX NSCLC): 2.04 µM | TGI (EKVX NSCLC): 4.39 µM | GI50 (LOX IMVI melanoma): 0.743 µM | TGI (LOX IMVI melanoma): 2.05 µM | TGI (K-562 leukemia): > 100 µM | GI50 (HOP-62 NSCLC): 1.59 µM | TGI (HOP-62 NSCLC): 3.43 µM | GI50 (U251 CNS): 1.53 µM | TGI (U251 CNS): 3.32 µM | GI50 (HOP-92 NSCLC): 0.867 µM | TGI (HOP-92 NSCLC): 2.83 µM | GI50 (SF-295 CNS): 1.54 µM | TGI (SF-295 CNS): 3.03 µM | GI50 (MCF7 breast): 1.47 µM | TGI (MCF7 breast): 3.06 µM | GI50 (HCC-2998 colon): 1.48 µM | TGI (HCC-2998 colon): 2.86 µM | GI50 (NCI/ADR-RES ovarian): 2.02 µM | TGI (NCI/ADR-RES ovarian): 6.24 µM | GI50 (BT-549 breast): 2.4 µM | TGI (BT-549 breast): 4.95 µM | GI50 (HCT-15 colon): 1.1 µM | TGI (HCT-15 colon): 3.07 µM | GI50 (OVCAR-3 ovarian): 2 µM | TGI (OVCAR-3 ovarian): 4.2 µM
